Test results: patent US8173133B2, “Acyl pseudodipeptides which carry a functionalized auxiliary arm” (OM Pharma, priority 1999, dated 2012)
Converted amounts (≈) assume the structure as drawn.

Assays:
[1] = test system: human peripheral blood mononuclear cells; experiment: α TNF production by human peripheral blood mononuclear cells; format: cell-based; details: for α TNF produced: 18 hours; for α TNF production: up to 100 μg/ml
Method: Mononuclear cells of peripheral blood are recovered from buffy coats of 6 healthy donors. Such buffy coat cells are resuspended and mononuclear cells are isolated by centrifugation on a Ficoll-Paque gradient (Amersham Pharmacia). Purified mononuclear cells are resuspended into RPMI-1640 medium supplemented with 10% FCS, antibiotics, mercaptoethanol and L-glutamine. Cell concentration is adjusted to 2×10^6 viable cells/ml
100 μl of each one of these solutions of acyl dipeptide-like compounds bearing an accessory functional side chain spacer, diluted 100-, 10- or 1-fold in RPMI medium 1640, are dispensed into a microtiter plate. Samples are tested in triplicates, and each microtiter plate includes a negative control made up of plain medium. Dilutions of E. coli LPS (ranging grom 1 to 0.00001 μg/ml) are used as a positive control.
100 μl of the cell suspension are added to each well containing product dilute solutions or control. Cells are incubated with the products for 18 hours in an incubator at 37° C., under 5% CO2 and a moisture saturated atmosphere.
At the end of the incubation period, microtiter plates are centrifuged, and the supernatant fluids are pooled and frozen at −80° C. as aliquots until time of ELISA assay.
Concentration of α TNF secreted by mononuclear cells is determined by chemiluminescent ELISA (QuantiGlo #QTAOO R&D kit). 4-fold supernatant fluid dilutions are dispensed into each well of the microtiter plate to which anti-αTNF antibodies are bound. The microtiter plate is incubated for 4 hours at room temperature. After washing, peroxidase-conjugated anti-human a TNF antibody is added. Following a 2 hour incubation period and thorough washing, a chemiluminescent substrate is added and chemilunescence is read after 20 minutes. α TNF content in the supernatant fluid is determined with respect to a standard curve covering the 7000 to 0.7 pg/ml range.
Results are expressed in pg/ml of α TNF produced. Results derive from an experiment representative of acyl-dipeptide-like compound activity

[2] = test system: Limulus Amoebocyte Lysate
bone marrow stem cells = experiment: bone marrow stem cell proliferation (XTT); format: cell-based, C57/BL6 mice; details: for Max amplitude: 7 days, XTT 492 nm; for Min amplitude: blank ± 3× standard deviation; for Max concentration: concentration at maximum amplitude; for EC50 conc: concentration corresponding to 50% of maximum amplitude; for Min concentration: lowest concentration inducing a significant proliferation
Source text: 6-week old male C57/BL6 mice are killed by CO2 inhalation. The hip, femur, tibia and hind leg bones are removed. The marrow is extracted from the bone lumen by injecting Dulbecco's Modified Eagle Medium (DH medium) from the end portions which had been excised. The stem cells are washed and suspended again in DH medium supplemented with 20% foetal calf serum (FCS) The cell concentration is adjusted to 500000 cells/ml.
Products previously dissolved in DH medium supplemented with 20% FCS, amino acids and antibiotics are serially diluted directly into a microtiter plate. The products are tested in triplicate and each microtiter plate includes a negative control containing plain medium. The final volume in each well is 100 μl.
100 μl of the cell suspension are added to diluted solutions of products and the cells are incubated for 7 days in an incubator at 37° C., under 8% CO2 and a moisture saturated atmosphere. Cell proliferation is determined by measuring the […] of a chromogenic substrate XTT (2,3-bis[2-methoxy-4-nitro-5-sulphophenyl]-2H-tetrazolium-5-carboxanilide) in mitochondria of viable cells.
At the end of the incubation period, 50 μl of the XTT substrate solution (1 mg/ml XTT+0.008 mg/ml phenazine methosulfate) are added to each well. After an 8 hour incubation period at 37° C. under 8% CO2 in a moisture saturated incubator, the microtiter plates are read with a spectrophotometer at 492 nm against a reference sample at 690 nm.
Results are expressed as mean value±standard deviation and plotted as a dose versus response curve. Values for a negative control composed of DH medium (mean±standard deviation) are also graphically shown.
From this dose versus response curve, 3 curve variables are computed:
Max: maximum curve amplitude and corresponding concentration
EC50: concentration corresponding to 50% of maximum amplitude
Min: lowest concentration inducing a significant proliferation corresponding to the blank±3× standard deviation value
Concentration values corresponding to EC50 and Min are determined from line segments joining different points on the curve.
If the curve has no plateau phase but an ascending configuration for the highest concentration being tested, a “>” sign is shown before Max and EC50 values.

CCCCCCCCCCCC(=O)O[C@H](CCCCCCCCCCC)CC(=O)NC(CCOP(=O)(O)O)C(=O)NCCCC(COC(=O)CCCCCO)NC(=O)C[C@H](O)CCCCCCCCCCC (stereo partly drawn) [OM-197-FV8, 3-[(R)-3-dodecanoyloxytetradecanoylamino]-4-oxo-5-aza-9-[(R)-3-hydroxytetradecanoylamino]-decan-1,10-diol 1-dihydrogenphosphate 10-(6-hydroxyhexanoate)]
α TNF produced ([1]; product 1 μg/ml): 12 pg/mL | α TNF produced ([1]; product 10 μg/ml): 100 pg/mL | α TNF produced ([1]; product 100 μg/ml): 252 pg/mL | LAL EU/mg of product [2]: 1820 EU/mg of product | LAL ng of LPS equivalent per mg of product [2]: 145.6 ng of LPS equivalent per mg of product | Max amplitude (bone marrow stem cells): 1.07 O.D | Min amplitude (bone marrow stem cells): 0.80 O.D | Max concentration (bone marrow stem cells): 25 µg/mL | EC50 conc (bone marrow stem cells): 1.8 µg/mL (≈ 1.72 µM) | Min concentration (bone marrow stem cells): 1.24 µg/mL

CCCCCCCCCCCC(=O)O[C@H](CCCCCCCCCCC)CC(=O)N[C@H](CC(=O)O)C(=O)NCCC[C@H](COC(=O)CCCCCNC(=O)CCC(=O)O)NC(=O)C[C@H](O)CCCCCCCCCCC [OM-197-MC-AC-Succ, N—[(R)-3-dodecanoyloxytetradecanoyl]-D-aspartic acid, α-N-{(4R)-5-(6-succinylamidohexanoxyloxy)-4[(R)-3-hydroxy-tetradecanoylamino]pentyl}amide]
α TNF produced ([1]; product 1 μg/ml): 0 pg/mL | α TNF produced ([1]; product 10 μg/ml): 32 pg/mL | α TNF produced ([1]; product 100 μg/ml): 40 pg/mL | LAL EU/mg of product [2]: <0.05 EU/mg of product | LAL ng of LPS equivalent per mg of product [2]: <0.004 ng of LPS equivalent per mg of product | Max amplitude (bone marrow stem cells): > 1.65 O.D | Min amplitude (bone marrow stem cells): 0.80 O.D | Max concentration (bone marrow stem cells): > 100 µg/mL | EC50 conc (bone marrow stem cells): 33.7 µg/mL (≈ 31.2 µM) | Min concentration (bone marrow stem cells): 2.04 µg/mL

CCCCCCCCCCCC(=O)O[C@H](CCCCCCCCCCC)CC(=O)N[C@H](CC(=O)O)C(=O)NCCC[C@H](COC(=O)CCCCCO)NC(=O)C[C@H](O)CCCCCCCCCCC [OM-197-MC-FV7, N—[(R)-3-dodecanoyloxytetradecanoylamino]-D-aspartic acid, α-N-{(4R)-5-hydroxy-4-[(R)-3-hydroxytetradecanoylamino]pentyl}amide 5-O-(6-hydroxyhexanoate)]
α TNF produced ([1]; product 1 μg/ml): 0 pg/mL | α TNF produced ([1]; product 10 μg/ml): 80 pg/mL | α TNF produced ([1]; product 100 μg/ml): 76 pg/mL | LAL EU/mg of product [2]: <0.05 EU/mg of product | LAL ng of LPS equivalent per mg of product [2]: <0.004 ng of LPS equivalent per mg of product | Max amplitude (bone marrow stem cells): > 1.83 O.D | Min amplitude (bone marrow stem cells): 0.80 O.D | Max concentration (bone marrow stem cells): > 100 µg/mL | EC50 conc (bone marrow stem cells): > 33.1 µg/mL | Min concentration (bone marrow stem cells): 6.58 µg/mL

CCCCCCCCCCCC(=O)O[C@H](CCCCCCCCCCC)CC(=O)N[C@H](CC(=O)O)C(=O)NCCC[C@H](COP(=O)(O)O)NC(=O)C[C@H](O)CCCCCCCCCCC [OM-197-MC-MP, N—[(R)-3-dodecanoyloxytetradecanoyl]-D-aspartic acid, α-N-{(4R)-5-dihydroxyphosphoryloxy-4-[(R)-3-hydroxytetradecanoyl-amino]pentyl}amide]
concentration at which a significant α TNF production level is induced ([1]; only at this concentration): 100 µg/mL | α TNF produced ([1]; product 1 μg/ml): 0 pg/mL | α TNF produced ([1]; product 10 μg/ml): 0 pg/mL | α TNF produced ([1]; product 100 μg/ml): 72 pg/mL | LAL EU/mg of product [2]: 210.5 EU/mg of product | LAL ng of LPS equivalent per mg of product [2]: 16.8 ng of LPS equivalent per mg of product | Max amplitude (bone marrow stem cells): > 1.60 O.D | Min amplitude (bone marrow stem cells): 0.80 O.D | Max concentration (bone marrow stem cells): > 160 µg/mL | EC50 conc (bone marrow stem cells): > 6.5 µg/mL | Min concentration (bone marrow stem cells): 0.77 µg/mL

CCCCCCCCCCCC(=O)O[C@H](CCCCCCCCCCC)CC(=O)N[C@@H](CCOP(=O)(O)O)C(=O)NCCC[C@H](COC(=O)CCCCCO)NC(=O)C[C@H](O)CCCCCCCCCCC [OM-197-MP-AC (S, R), (3S,9R)-3-[(R)-3-dodecanoyloxytetradecanoylamino]-4-oxo-5-aza-9-[(R)-3-hydroxytetradecanoylamino]-1,10-diol 1-dihydrogenphosphate 10-(6-hydroxyhexanoate)]
α TNF produced ([1]; product 1 μg/ml): 488 pg/mL | α TNF produced ([1]; product 10 μg/ml): 124 pg/mL | α TNF produced ([1]; product 100 μg/ml): 80 pg/mL | LAL EU/mg of product [2]: <0.125 EU/mg of product | LAL ng of LPS equivalent per mg of product [2]: <0.01 ng of LPS equivalent per mg of product | Max amplitude (bone marrow stem cells): 1.22 O.D | Min amplitude (bone marrow stem cells): 0.80 O.D | Max concentration (bone marrow stem cells): 6.25 µg/mL | EC50 conc (bone marrow stem cells): 2.62 µg/mL (≈ 2.5 µM) | Min concentration (bone marrow stem cells): 1.17 µg/mL

CCCCCCCCCCC[C@@H](O)CC(=O)N[C@H](CCCNC(=O)[C@@H](CC(=O)O)NC(=O)C(CCCCCC)OC(=O)CCCCCCCCC)COC(=O)CCCCCN (stereo partly drawn) [OM-197-N′(C10-20C8)-MC-AC, N-(2-decanoyloxyoctanoyl)-D-aspartic acid, α-N-{(4R)-5-(6-aminohexanoyloxy)-4-[(R)-3-hydroxytetradecanoylamino]-pentyl}amide]
α TNF produced ([1]; product 1 μg/ml): 0 pg/mL | α TNF produced ([1]; product 10 μg/ml): 0 pg/mL | α TNF produced ([1]; product 100 μg/ml): 0 pg/mL | α TNF production [1]: do not induce any αTNF production | LAL EU/mg of product [2]: <0.5 EU/mg of product | LAL ng of LPS equivalent per mg of product [2]: <0.04 ng of LPS equivalent per mg of product | Max amplitude (bone marrow stem cells): 0.75 O.D | Min amplitude (bone marrow stem cells): 0.80/nd O.D | Max concentration (bone marrow stem cells): 6.25 µg/mL

CCCCCCCCCCC[C@@H](O)CC(=O)N[C@H](CCCNC(=O)[C@@H](CC(=O)O)NC(C)=O)COC(=O)CCCCCN [OM-197-N′C2-MC-AC, N-acetyl-D-aspartic acid, α-N-{(4R)-5-(6-aminohexanoyloxy)-4-[(R)-3-hydroxytetradecanoylamino]-pentyl}amide]
α TNF produced ([1]; product 1 μg/ml): 0 pg/mL | α TNF produced ([1]; product 10 μg/ml): 0 pg/mL | α TNF produced ([1]; product 100 μg/ml): 0 pg/mL | α TNF production [1]: do not induce any αTNF production | LAL EU/mg of product [2]: <0.5 EU/mg of product | LAL ng of LPS equivalent per mg of product [2]: <0.04 ng of LPS equivalent per mg of product | Max amplitude (bone marrow stem cells): 0.75 O.D | Min amplitude (bone marrow stem cells): 0.80/nd O.D | Max concentration (bone marrow stem cells): 1.56 µg/mL
